In patent US12630633B2, “Antibody molecules to PD-1 and uses thereof” (Novartis AG, priority 2015, dated 2026):
Where two headings read alike, the source gives them in different places.

Tests used:
metastatic breast cancer = details: phase III, cited from earlier work
MC38 [1] = assay: MC38 murine syngeneic tumor model, panobinostat with anti-PD-1; type: in vivo
[2] = tested on: class I, IIa, IIIb, and IV isoforms (HDAC); details: majority of class I; cited from earlier work
PD-L1 gene = details: cited from earlier work
metastatic TNBC = details: Keynote-012; cited from earlier work
CT26 = details: cited from earlier work
[3] = tested on: KRAS-mutant CT26 colorectal tumor; details: monotherapy, CT26 model; cited from earlier work
AML = details: cited from earlier work
BAF3-PDGFRβ = assay: kinase transfected BaF3 proliferation assay, BAF3-PDGFRβ; details: Mus musculus, BaF3, read-out: Cellular EC50 BAF3-PDGFRβ
[4] = continuous daily dosing, transaminases, rats; type: in vivo
[5] = continuous daily dosing, transaminases, monkeys; type: in vivo
MC38 [6] = assay: MC38 syngeneic colorectal cancer model, Compound A15 with anti-PD-1; type: in vivo; details: preclinical data
glioblastoma = details: cited from earlier work
[7] = tested on: human T cell proliferation; details: cited from earlier work
MNFS-60 = assay: anti-proliferative effect on M-CSF dependent cell line MNFS-60
[8] = tested on: all other BaF3 cell lines; assay: kinase transfected BaF3 proliferation assays, all other BaF3 cell lines; details: Mus musculus, BaF3, read-out: Cellular EC50 all other BaF3 cell lines
xenografted tumors = details: cited from earlier work
MC38 [9] = assay: MC38 murine syngeneic tumor model, Compound A21 with anti-PD-1; type: in vivo, C57B1/6 mice; details: Compound A21 100 mg/kg orally once weekly (split 50 mg/kg b.i.d.), anti-PD-1 10 mg/kg IV once weekly
Experimental: C57B1/6 mice were implanted with 1×10^6 MC38 cells/mouse. Vehicle and Compound A21 (50 mg/kg orally twice daily QW) were given for four doses, starting on day 4 post-tumor implant. Isotype and anti-mouse PD-1 were given 10 mg/kg IV QW.

T lymphocytes [10] = assay: T lymphocyte proliferation and cytokine production in vitro; type: cell-based
T lymphocytes [11] = assay: Compound A21 effects on T lymphocytes in vitro; type: cell-based
EGFR mutant NSCLC = assay: Compound A40 in EGFR mutant NSCLC patients; type: in vivo, human
[12] = tested on: PD-1-positive CD4+ and CD8+ lymphocytes; details: 5 mg per week, cited from earlier work
[13] = tested on: S6 kinase (S6K) phosphorylation; details: predicted, cited from earlier work
[14] = tested on: S6 kinase (S6K) phosphorylation; details: predicted by modeling, cited from earlier work
[15] = tested on: PD-1-positive CD4+ and CD8+ lymphocytes; details: 5 mg per week, elderly subjects; cited from earlier work
[16] = 0.5 mg daily dosing regimen, over the dosing interval

CC(=O)O[C@H]1C(=O)[C@@]2(C)[C@H]([C@H](OC(=O)c3ccccc3)[C@]3(O)C[C@H](OC(=O)[C@H](O)[C@@H](NC(=O)c4ccccc4)c4ccccc4)C(C)=C1C3(C)C)[C@]1(OC(C)=O)CO[C@@H]1C[C@@H]2O [traditional paclitaxel, (2α,4α,5β,7β,10β,13α)-4,10-Bis(acetyloxy)-13-{[(2R,3S)-3-(benzoylamino)-2-hydroxy-3-phenylpropanoyl]oxy}-1,7-dihydroxy-9-oxo-5,20-epoxytax-11-en-2-yl benzoate]
ORR (metastatic breast cancer; first and second line or beyond): 19%
TTP (metastatic breast cancer): 16.9 weeks

Cc1[nH]c2ccccc2c1CCNCc1ccc(/C=C/C(=O)NO)cc1 [Compound A19, Panobinostat]
animals achieving CRs (MC38 [1]; panobinostat 12 mg/kg every other day, anti-PD1 10 mg/kg IV once weekly): two of ten
body weight (MC38 [1]; recovery after dosing of panobinostat was completed): Some reduction in body weight
inhibition of HDAC activity [2]: highly effective at inhibiting the HDAC activity of the majority of class I, IIa, IIIb, and IV isoforms at low nanomolar concentrations
expression of the PD-L1 gene (PD-L1 gene; melanoma cell lines, cultured melanoma biopsy material, tumor-bearing mice): enhanced expression of the PD-L1 gene
responses to treatment with a PD-1 inhibitor (PD-L1 gene; mice): modestly improved responses

pembrolizumab
responses, patients (metastatic TNBC): five of 27

CC(=O)Nc1cccc(-n2c(=O)n(C3CC3)c(=O)c3c(Nc4ccc(I)cc4F)n(C)c(=O)c(C)c32)c1 [trametinib, N-(3-{3-cyclopropyl-5-[(2-fluoro-4-iodophenyl)amino]-6,8-dimethyl-2,4,7-trioxo-3,4,6,7-tetrahydropyrido[4,3-d]pyrimidin-1(2H)-yl}phenyl)acetamide]
CD4+ T cells in tumor tissue (CT26; CT26, treatment for seven days): significant increases of CD4+ T cells
tumor infiltrating lymphocytes (TILs) (CT26; CT26): increases the numbers of tumor infiltrating lymphocytes (TILs)
CD4+ tumor infiltrating lymphocytes (TILs) [3]: increased
prevalence of CD8+ TILs [3]: did not negatively affect

Nc1ncn([C@H]2C[C@H](O)[C@@H](CO)O2)c(=O)n1 [decitabine, 5-aza-2′-deoxycytidine]
complete remission rate (CR+CRp) (AML; in vivo): 17.8%
median Overall Survival (OS) (AML; intent-to-treat population): 7.7 months

CNC(=O)c1cc(Oc2ccc3nc(N[C@@H]4CCCC[C@H]4O)sc3c2)ccn1 [Compound A15]
EC50 (BAF3-PDGFRβ): ≥ 2 µM
transaminases [4]: transaminases elevation
transaminases [5]: transaminases elevation
once-a-week (Q1W) versus daily dose, TAMs depletion and anti-tumor activity (MC38 [6]): performs at least as well as the daily dose
established tumors and survival (glioblastoma; 200 mg/kg daily, genetic mouse model of glioblastoma): induce regression of established tumors and increase survival
xenograft growth (glioblastoma; 200 mg/kg daily, proneural glioblastoma-derived xenografts): slow the growth
M2-type macrophages (glioblastoma; animal models of glioma): reduction and re-programming of M2-type macrophages
suppressive function of tumor-educated monocytes on CD8+ and CD4+ T cells ([7]; monocytes co-cultured with neuroblastoma cell lines): inhibit the suppressive function
potential of myeloid cells to stimulate human T cell proliferation ([7]; neuroblastoma (Mao et al. 2016)): recovered the potential of myeloid cells to stimulate human T cell proliferation
EC50 (MNFS-60; read-out: EC50 anti-proliferative effect, MNFS-60, M-CSF dependent proliferation): < 0.071 µM
EC50 (MNFS-60; read-out: EC50 anti-proliferative effect, MNFS-60; M-CSF dependent proliferation): 0.071 µM
EC50 [8]: > 10 µM

O=C(/C=C/c1ccc2ccc(C(F)(F)F)cc2n1)c1ccncc1 [PFK-158, (E)-1-(pyridin-4-yl)-3-(7-(trifluoromethyl)quinolin-2-yl)-prop-2-en-1-one]
antitumor activity (xenografted tumors): exhibit antitumor activity
18FDG uptake (xenografted tumors; xenografted tumors): reduce

CN[C@@H](C)C(=O)N[C@H](C(=O)N1CCC[C@H]1c1nc(C(=O)c2ccc(F)cc2)cs1)C1CCCCC1 [Compound A21]
tolerability (1800 mg in combination with paclitaxel): poorly tolerated
rate of pathological complete response of TNBC (with paclitaxel, clinical data): increased the rate of pathological complete response
complete responses (CRs) (MC38 [9]): neither single agent treatment yielded any CRs
IFNgamma (T lymphocytes [10]): induced IFNgamma
production of IL-10 (T lymphocytes [10]): suppressed production of IL-10
proliferation of T lymphocytes (T lymphocytes [10]): stimulated proliferation of T lymphocytes
IFNgamma (T lymphocytes [11]): induced
production of IL-10 (T lymphocytes [11]): suppressed
proliferation of T lymphocytes (T lymphocytes [11]): stimulated

Cc1cc(C(=O)Nc2nc3cccc(Cl)c3n2[C@@H]2CCCCN(C(=O)/C=C/CN(C)C)C2)ccn1 [Compound A40]
efficacy (EGFR mutant NSCLC): has shown efficacy

COC1CC2CCC(C)C(O)(O2)C(=O)C(=O)N2CCCCC2C(=O)OC(C(C)CC2CCC(OCCO)C(OC)C2)CC(=O)C(C)/C=C(/C)C(O)C(OC)C(=O)C(C)CC(C)/C=C/C=C/C=C\1C (centres unmarked) [Compound A36, Everolimus]
percentage of PD-1-positive CD4+ and CD8+ lymphocytes ([12]; compared to placebo): reducing the percentage of PD-1-positive CD4+ and CD8+ lymphocytes
response to an influenza vaccine ([12]; elderly subjects): enhancing the response to an influenza vaccine
inhibition of S6K phosphorylation [13, 16]: about 38%
inhibition of S6K phosphorylation ([13]; 5 mg weekly dosing regimen): more than 50%
inhibition of mTOR-mediated S6K phosphorylation ([13]; 20 mg weekly dosing regimen): almost completely

CO[C@H]1C[C@@H]2CC[C@@H](C)[C@@](O)(O2)C(=O)C(=O)N2CCCC[C@H]2C(=O)O[C@H]([C@H](C)C[C@@H]2CC[C@@H](OCCO)[C@H](OC)C2)CC(=O)[C@H](C)/C=C(\C)[C@@H](O)[C@@H](OC)C(=O)[C@H](C)C[C@H](C)/C=C/C=C/C=C/1C [everolimus]
inhibition of S6K phosphorylation [14, 16]: about 38%
inhibition of S6K phosphorylation ([14]; 5 mg weekly dosing regimen): more than 50%
inhibition of mTOR-mediated S6K phosphorylation ([14]; 20 mg weekly dosing regimen): almost completely
immune effect [15]: immunostimulatory
